Assay [1] has as its system genotype 3a (S52) stable HCV replicon in Huh-7-derived cells. Nature of the assay: Stable subgenomic HCV replicon EC50, genotype 3a (Renilla luciferase). It counts as cell-based, hepatitis C virus. To be noted: Hepatitis C virus, 72 h, read-out: EC50 3A RLUC. Background: In antiviral work, replicon cells carry a viral genome segment that copies itself.
The test system of assay [2] is genotype 1b NS3/4a protease inhibitor resistant variant D168A transient HCV replicon in Huh-7-derived cells. In words: Transient-transfected HCV replicon EC50, genotype 1b D168A. It is filed as cell-based, hepatitis C virus. Particulars: Hepatitis C virus, 72 h, read-out: EC50 1B D168A, transient-transfected replicon genotype 1b D168A resistant variant, 72 h.
The subject of assay [3] is genotype 1a NS3/4a protease inhibitor resistant variant R155K transient HCV replicon in Huh-7-derived cells. In words: Transient-transfected HCV replicon EC50, genotype 1a R155K. It is filed as cell-based, hepatitis C virus. To be noted: Hepatitis C virus, 72 h, read-out: EC50 1A R155K, transient-transfected replicon genotype 1a R155K resistant variant, 72 h.
Assay [4] relates to genotype 4a (ED43) stable HCV replicon in Huh-7-derived cells. In words: Stable subgenomic HCV replicon EC50, genotype 4a (Renilla luciferase). It counts as cell-based, hepatitis C virus. To be noted: Hepatitis C virus, 72 h, read-out: EC50 4A RLUC. In a few lines:
(§1)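 Compounds, three-fold diluted, were applied to Huh-7-derived cells harbouring luciferase replicons (genotype 1a H77, 1b Con1, 2a JFH-1, 4a ED43, with strain-specific adaptive mutations). Seventy-two hours later, intracellular replication was gauged by Renilla luciferase activity and EC50 derived by regression.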

In assay [5] the test system is genotype 1a (H77) stable HCV replicon in Huh-7-derived cells. Nature of the assay: Stable subgenomic HCV replicon EC50, genotype 1a (Renilla luciferase). It counts as cell-based, hepatitis C virus. Particulars: Hepatitis C virus, stable replicon genotype 1a, 72 h, read-out: EC50 1A RLUC. The method, boiled down:
as §1

The test system of assay [6] is genotype 1a (H77) wild type transient HCV replicon in Huh-7-derived cells. Nature of the assay: Transient-transfected HCV replicon EC50, genotype 1a wild type. It counts as cell-based, hepatitis C virus. Particulars: Hepatitis C virus, 72 h, transient-transfected replicon genotype 1a wild type, read-out: EC50 1A WT.
In assay [7] the test system is genotype 2a (JFH-1) stable HCV replicon in Huh-7-derived cells. In words: Stable subgenomic HCV replicon EC50, genotype 2a (Renilla luciferase). It counts as cell-based, hepatitis C virus. To be noted: Hepatitis C virus, stable replicon genotype 2a, 72 h, read-out: EC50 2A RLUC. The method, boiled down: as §1
For assay [8], the system named is genotype 1b (Con1) stable HCV replicon in Huh-7-derived cells. Nature of the assay: Stable subgenomic HCV replicon EC50, genotype 1b (Renilla luciferase). Particulars: Hepatitis C virus, stable replicon genotype 1b, 72 h, read-out: EC50 1B RLUC. It counts as cell-based, hepatitis C virus. In a few lines:
as §1

Assay [9] relates to genotype 3a (S52) wild type transient HCV replicon in Huh-7-derived cells. In words: Transient-transfected HCV replicon EC50, genotype 3a wild type. To be noted: Hepatitis C virus; transient-transfected replicon genotype 3a wild type, 72 h; read-out: EC50 3A WT. It counts as cell-based, hepatitis C virus.
The subject of assay [10] is genotype 1b (Con1) wild type transient HCV replicon in Huh-7-derived cells. In words: Transient-transfected HCV replicon EC50, genotype 1b wild type. It counts as cell-based, hepatitis C virus. To be noted: Hepatitis C virus, 72 h, transient-transfected replicon genotype 1b wild type, read-out: EC50 1B WT.
The target of assay [11] is HCV NS3 protease domain genotype 3a (Hepatitis C virus genotype 3a, UniProt Q81258). Nature of the assay: Ki determination, NS3 protease genotype 3a (fluorogenic depsipeptide substrate). It is filed as biochemical. Particulars: 200 pM enzyme, NS4A peptide. The method, boiled down: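 The NS3 protease domain (aa 1-181) with 20 μM NS4A peptide was used at 50 pM with 4 μM substrate (1b) or at 200 pM with 2 μM substrate (3a). Inhibitors (100 nM-5 pM) were pre-incubated 1 h at room temperature in HEPES/glycerol/DTT buffer with 10% DMSO. Steady-state rates (90-120 min) gave Ki via the Morrison equation, corrected for active enzyme and [S]/Km.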

Experimental findings from patent US10335409B2 (priority 2012, dated 2019) are described below.

A word on the pEC50: it is the negative decadic logarithm of the EC50, by convention in mol/L. In general, pKi refers to the Ki on a negative log10 scale, so that one unit is a factor of ten. Read a low pKi as a large Ki.

Each structure is given as a SMILES string. pEC50, pKi: −log10 of the molar value.

Chain of HCV NS3 protease domain genotype 3a (Q81258 whole entry, looked up, the tested form may be a part): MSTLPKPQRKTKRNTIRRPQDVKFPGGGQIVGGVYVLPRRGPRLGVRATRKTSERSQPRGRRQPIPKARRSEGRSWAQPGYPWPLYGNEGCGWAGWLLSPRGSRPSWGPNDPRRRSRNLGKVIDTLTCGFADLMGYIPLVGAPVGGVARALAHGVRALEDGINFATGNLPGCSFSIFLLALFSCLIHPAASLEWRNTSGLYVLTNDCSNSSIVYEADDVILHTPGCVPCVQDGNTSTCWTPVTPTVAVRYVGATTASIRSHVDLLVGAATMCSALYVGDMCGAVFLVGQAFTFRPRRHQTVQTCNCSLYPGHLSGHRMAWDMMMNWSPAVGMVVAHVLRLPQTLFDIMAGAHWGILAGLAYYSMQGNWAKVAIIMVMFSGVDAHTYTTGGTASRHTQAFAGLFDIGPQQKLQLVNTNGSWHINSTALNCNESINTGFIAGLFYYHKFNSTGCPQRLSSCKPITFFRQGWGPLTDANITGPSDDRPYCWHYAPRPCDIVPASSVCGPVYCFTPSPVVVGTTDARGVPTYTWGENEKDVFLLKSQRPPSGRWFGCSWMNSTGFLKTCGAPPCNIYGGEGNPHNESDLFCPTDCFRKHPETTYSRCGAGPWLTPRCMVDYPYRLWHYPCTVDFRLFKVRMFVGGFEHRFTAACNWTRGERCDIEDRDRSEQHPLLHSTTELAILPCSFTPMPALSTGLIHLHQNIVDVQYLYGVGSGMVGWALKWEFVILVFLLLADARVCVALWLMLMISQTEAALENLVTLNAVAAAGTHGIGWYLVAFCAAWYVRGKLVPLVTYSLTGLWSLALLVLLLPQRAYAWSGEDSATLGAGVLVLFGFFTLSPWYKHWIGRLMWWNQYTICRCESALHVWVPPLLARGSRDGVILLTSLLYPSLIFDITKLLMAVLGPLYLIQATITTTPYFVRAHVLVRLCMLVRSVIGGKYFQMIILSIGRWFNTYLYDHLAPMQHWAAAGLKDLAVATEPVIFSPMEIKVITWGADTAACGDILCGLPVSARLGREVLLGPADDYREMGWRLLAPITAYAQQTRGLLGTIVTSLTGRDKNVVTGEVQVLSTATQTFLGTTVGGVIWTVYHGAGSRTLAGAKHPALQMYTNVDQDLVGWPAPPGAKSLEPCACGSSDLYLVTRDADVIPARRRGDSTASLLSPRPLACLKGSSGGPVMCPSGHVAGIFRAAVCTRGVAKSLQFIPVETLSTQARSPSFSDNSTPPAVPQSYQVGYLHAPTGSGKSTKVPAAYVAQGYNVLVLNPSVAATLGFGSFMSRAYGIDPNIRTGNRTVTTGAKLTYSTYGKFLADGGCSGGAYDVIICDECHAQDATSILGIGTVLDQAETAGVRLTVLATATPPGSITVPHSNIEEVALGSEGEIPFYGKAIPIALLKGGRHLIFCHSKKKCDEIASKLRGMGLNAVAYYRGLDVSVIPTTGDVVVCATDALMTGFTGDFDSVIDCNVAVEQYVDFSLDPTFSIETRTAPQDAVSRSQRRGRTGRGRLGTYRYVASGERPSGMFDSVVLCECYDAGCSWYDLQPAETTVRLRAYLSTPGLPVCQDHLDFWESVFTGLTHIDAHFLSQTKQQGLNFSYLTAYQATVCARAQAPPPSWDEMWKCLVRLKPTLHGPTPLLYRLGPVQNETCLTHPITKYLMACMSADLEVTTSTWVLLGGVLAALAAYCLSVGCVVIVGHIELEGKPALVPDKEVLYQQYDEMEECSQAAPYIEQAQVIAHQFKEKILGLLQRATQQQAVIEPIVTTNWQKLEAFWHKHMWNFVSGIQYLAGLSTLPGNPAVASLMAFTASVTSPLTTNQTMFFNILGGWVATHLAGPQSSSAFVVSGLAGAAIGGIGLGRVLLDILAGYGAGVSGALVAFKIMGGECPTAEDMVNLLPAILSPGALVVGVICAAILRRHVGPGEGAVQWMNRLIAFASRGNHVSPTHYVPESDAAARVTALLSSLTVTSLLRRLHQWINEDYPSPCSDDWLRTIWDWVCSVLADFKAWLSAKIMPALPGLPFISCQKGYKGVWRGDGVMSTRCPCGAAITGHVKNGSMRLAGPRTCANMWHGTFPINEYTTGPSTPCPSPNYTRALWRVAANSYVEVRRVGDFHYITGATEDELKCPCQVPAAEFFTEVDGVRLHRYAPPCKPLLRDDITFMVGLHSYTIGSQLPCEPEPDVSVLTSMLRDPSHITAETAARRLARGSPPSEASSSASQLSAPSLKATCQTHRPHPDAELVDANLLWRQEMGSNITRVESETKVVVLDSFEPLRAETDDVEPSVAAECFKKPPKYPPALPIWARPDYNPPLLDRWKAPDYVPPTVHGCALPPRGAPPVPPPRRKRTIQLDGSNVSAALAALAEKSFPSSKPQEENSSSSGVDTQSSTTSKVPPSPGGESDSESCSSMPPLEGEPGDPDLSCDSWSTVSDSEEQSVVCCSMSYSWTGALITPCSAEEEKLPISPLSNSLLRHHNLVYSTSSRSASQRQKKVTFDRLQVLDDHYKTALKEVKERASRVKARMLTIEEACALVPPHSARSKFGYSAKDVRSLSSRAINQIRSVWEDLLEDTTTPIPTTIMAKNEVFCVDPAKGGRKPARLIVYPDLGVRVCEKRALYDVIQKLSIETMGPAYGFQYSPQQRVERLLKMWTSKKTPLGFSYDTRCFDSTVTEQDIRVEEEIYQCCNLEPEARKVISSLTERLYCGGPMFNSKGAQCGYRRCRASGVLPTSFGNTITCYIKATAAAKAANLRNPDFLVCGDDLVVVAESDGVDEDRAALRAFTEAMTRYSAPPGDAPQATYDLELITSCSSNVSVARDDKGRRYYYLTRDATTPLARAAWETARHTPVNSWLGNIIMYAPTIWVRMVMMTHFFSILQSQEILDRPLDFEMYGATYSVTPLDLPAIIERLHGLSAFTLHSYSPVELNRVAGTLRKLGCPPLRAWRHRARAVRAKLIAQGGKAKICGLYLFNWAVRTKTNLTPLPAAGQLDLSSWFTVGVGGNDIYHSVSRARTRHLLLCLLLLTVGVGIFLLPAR

On to `CC[C@@H]1[C@@H]2CN(C(=O)[C@H](C(C)(C)C)NC(=O)O[C@@H]3C[C@H]3CCCC3CC3c3nc4ccc(OC)cc4nc3O2)[C@@H]1C(=O)N[C@]1(C(=O)NS(=O)(=O)C2(C)CC2)C[C@H]1C(F)F` (stereo partly drawn) [Example 36, (1aR,5S,8S,9S,10R,21aR)-5-tert-butyl-N-[(1R,2R)-2-(difluoromethyl)-1-{[(1-methylcyclopropyl)sulfonyl]carbamoyl}cyclopropyl]-9-ethyl-14-methoxy-3,6-dioxo-1a,3,4,5,6,9,10,17b,18,18a, 19,20,21,21a-tetradecahydro-1H,8H-7,10-methanodicyclopropa[13,14:18,19][1,10,3,6]dioxadiazacyclononadecino[11,12-b]quinoxaline-8-carboxamide], for which the pEC50 in assay [1] was 6.23; in [2] it was 6.48; in assay [3], 6.57; in assay [4], 8.04; in assay [5] it was 7.64; in assay [6], 7.80. The pEC50 in assay [7] is 7.28; in assay [8] it was 7.85; in assay [9], 6.89; in assay [10], 8.03. Further, the pKi in [11] is 8.77.

In the case of `CC[C@@H]1[C@@H]2CN(C(=O)[C@H](C(C)(C)C)NC(=O)O[C@]3(C)CCC[C@H]3CCCCCc3nc4ccc(OC)cc4nc3O2)[C@@H]1C(=O)N[C@]1(C(=O)NS(=O)(=O)C2(C)CC2)C[C@H]1C(F)F` [Example 39], the pEC50 was 6.49 in [1]; 6.98 in assay [2]; 7.20 in [3]; 7.59 in assay [4]; 7.47 in assay [5]; 7.64 in assay [6]. In addition, the pEC50 is 7.39 in [7], 7.41 in assay [8], 7.05 in [9] and 7.80 in assay [10]. The compound also gave a pKi in assay [11] of 9.70.

For `COc1ccc2nc3c(nc2c1)O[C@H]1CN(C(=O)[C@H](C(C)(C)C)NC(=O)O[C@]2(C)C[C@H]2CCCCC3)[C@H](C(=O)N[C@]2(C(=O)NS(=O)(=O)C3(C)CC3)C[C@H]2C(F)F)[C@@H]1C` [Example 44, (1aR,5S,8S,9S,10R,22aR)-5-tert-butyl-N-[(1R,2R)-2-(difluoromethyl)-1-{[(1-methylcyclopropyl)sulfonyl]carbamoyl}cyclopropyl]-14-methoxy-1a,9-dimethyl-3,6-dioxo-1,1a,3,4,5,6,9,10,18,19,20,21,22,22a-tetradecahydro-8H-7,10-methanocyclopropa[18,19][1,10,3,6]dioxadiazacyclononadecino[11,12-b]quinoxaline-8-carboxamide], the negative logarithm of the EC50 (pEC50) in assay [1] was 7.28; in [2] it was 7.82; in assay [3], 8.40; in assay [4] it was 8.66; in assay [5] it was 8.51; in assay [6], 8.62. Besides, the negative logarithm of the EC50 (pEC50) was 8.54 in [7], 8.68 in [8], 8.15 in assay [9] and 8.85 in [10]. In addition, in assay [11], the negative-log Ki (pKi) is 10.10.

With `COc1ccc2nc3c(nc2c1)O[C@H]1CN(C(=O)[C@H](C(C)(C)C)NC(=O)O[C@@H]2C[C@H]2CCCCC3(F)F)[C@H](C(=O)N[C@]2(C(=O)NS(=O)(=O)C3(C)CC3)C[C@H]2C(F)F)[C@@H]1C` [Example 46, (1aR,5S,8S,9S,10R,22aR)-5-tert-butyl-N-[(1R,2R)-2-(difluoromethyl)-1-{[(1-methylcyclopropyl)sulfonyl]carbamoyl}cyclopropyl]-18,18-difluoro-14-methoxy-9-methyl-3,6-dioxo-1,1a,3,4,5,6,9,10,18,19,20,21,22,22a-tetradecahydro-8H-7,10-methanocyclopropa[18,19][1,10,3,6]dioxadiazacyclononadecino[11,12-b]quinoxaline-8-carboxamide], the pEC50 was 7.77 in assay [1]; 8.35 in [2]; 8.49 in assay [3]; 8.60 in assay [4]; 8.51 in [5]; 8.62 in [6]. Also, the negative-log EC50 (pEC50) was 8.42 in assay [7], 8.57 in assay [8], 8.17 in assay [9] and 8.92 in [10]. In addition, the pKi in assay [11] was 10.30.

On to `CC[C@@H]1[C@@H]2CN(C(=O)[C@H](C(C)(C)C)NC(=O)O[C@]3(C)C[C@H]3CCCCC(F)(F)c3nc4ccc(OC)cc4nc3O2)[C@@H]1C(=O)N[C@]1(C(=O)NS(=O)(=O)C2(C)CC2)C[C@H]1C(F)F` [Example 63, (1aR,5S,8S,9S,10R,22aR)-5-tert-butyl-N-[(1R,2R)-2-(difluoromethyl)-1-{[(1-methylcyclopropyl)sulfonyl]carbamoyl}cyclopropyl]-9-ethyl-18,18-difluoro-14-methoxy-1a-methyl-3,6-dioxo-1,1a,3,4,5,6,9,10,18,19,20,21,22,22a-tetradecahydro-8H-7,10-methanocyclopropa[18,19][1,10,3,6]dioxadiazacyclononadecino[11,12-b]quinoxaline-8-carboxamide], for which the pEC50 was 7.96 in [1]; 8.47 in [2]; 8.40 in assay [3]; 8.49 in [4]; 8.38 in [5]; 8.39 in assay [6]. Further, the pEC50 is 8.49 in assay [7], 8.54 in assay [8], 8.16 in assay [9] and 8.68 in assay [10]. In [11], the pKi was 11.00.

On to `CC[C@@H]1[C@@H]2CN(C(=O)[C@H](C(C)(C)C)NC(=O)O[C@@H]3CCCC[C@H]3CCCCCc3nc4ccc(OC)cc4nc3O2)[C@@H]1C(=O)N[C@]1(C(=O)NS(=O)(=O)C2CC2)C[C@H]1C(F)F` [Example 66, (4aR,8S,11 S,12S,13R,25aR)-8-tert-butyl-N-[(1R,2R)-1-[(cyclopropylsulfonyl)carbamoyl]-2-(difluoromethyl)cyclopropyl]-12-ethyl-17-methoxy-6,9-dioxo-2,3,4,4a,6,7,8,9,12,13,21,22,23,24,25,25a-hexadecahydro-1H,11H-10,13-methanoquinoxalino[2,3-k][1,10,3,6]benzodioxadiazacyclononadecine-11-carboxamide], for which the pEC50 was 5.75 in [1]; 6.40 in [2]; 6.62 in assay [3]; 7.60 in assay [4]; 7.43 in assay [5]; 7.46 in assay [6]. The negative logarithm of the EC50 (pEC50) is 6.98 in assay [7], 7.70 in assay [8], 6.13 in [9] and 7.85 in assay [10]. The negative logarithm of the Ki (pKi) in [11] was 10.22.

`COc1ccc2nc3c(nc2c1)O[C@H]1CN(C(=O)[C@H](C(C)(C)C)NC(=O)O[C@@H]2CCCC[C@H]2CCCCC3(F)F)[C@H](C(=O)N[C@]2(C(=O)NS(=O)(=O)C3CC3)C[C@H]2C(F)F)[C@@H]1C` [Example 68, (4aR,8S,11 S,12S,13R,25aS)-8-tert-butyl-N-[(1R,2R)-1-[(cyclopropylsulfonyl)carbamoyl]-2-(difluoromethyl)cyclopropyl]-21,21-difluoro-17-methoxy-12-methyl-6,9-dioxo-2,3,4,4a,6,7,8,9,12,13,21,22,23,24,25,25a-hexadecahydro-1H,11H-10,13-methanoquinoxalino[2,3-k][1,10,3,6]benzodioxadiazacyclononadecine-11-carboxamide]: the pEC50 in [1] was 6.44; in assay [2], 7.11; in assay [3], 7.43; in assay [4], 8.03; in assay [5] it was 7.89; in assay [6], 7.85. Moreover, the pEC50 is 7.74 in assay [7], 8.11 in assay [8], 6.86 in assay [9] and 8.36 in assay [10]. In [11], this compound gave a negative-log Ki (pKi) of 9.20.
